Experimental data from US10961189B2, “Spiro-lactam NMDA receptor modulators and uses thereof” (Aptinyx Inc., priority 2016, dated 2021).
Where two headings read alike, the source gives them in different places.

How the values were obtained:
[1] = oral pharmacokinetics (plasma, brain, CSF); assay type: in vivo, Sprague Dawley rats; conditions: rat, per os 10 mg/kg; for AUC(0-t) / bioavailability / Tmax / Cmax: Sprague-Dawley, plasma, po; for Tmax: normal saline (* in 5% NMP, 5% Solutol HS, 90% normal saline), read-out: Tmax; for Cmax: read-out: Cmax
Procedure: In another experiment, Sprague Dawley rats were dosed per os using a normal saline formulation containing 10 mg/kg of the compounds identified in the table below (except for the compounds marked with an asterisk (“*”) that were delivered in 5% NMP, 5% Solutol® HS and 90% normal saline formulation). Plasma, brain, and CSF samples were analyzed at various time points over a 24 hour period.

IV pharmacokinetics = assay type: in vivo, Sprague Dawley rats; conditions: rat, normal saline (* in 5% NMP, 5% Solutol HS, 90% normal saline); for Vd: read-out: Vss
Excerpt: The table below summarizes the results of the IV pharmacokinetics.

NMDAR2B = molecular target: T1, NMDAR2B (Homo sapiens, UniProt Q13224); assay: [3H]MK-801 binding in NMDAR expressing HEK cell membranes (facilitation of NMDAR activation); assay type: biochemical; conditions: 50 μM glutamate; for EC50: read-out: B: log EC50 (converted); for Emax: 0.25 h, read-out: A: % maximal [3H]MK-801 binding relative to 1 mM glycine
T1 construct: expressed in transfected cells; host or cells: HEK cells (membrane extract)
Method in brief: (§1)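 HEK membranes (300 μg) expressing the NMDAR subunit were preincubated 15 min at 25 °C with 50 μM glutamate and compound ([…]−1×10^−7M), then with 0.3 μCi [3H]MK-801 for 15 min under nonequilibrium conditions and filtered. Baseline-subtracted DPM was expressed as % of 1 mM glycine, and EC50 and % maximal binding came from three-parameter curve fits.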

NMDAR2A = molecular target: T2, NMDAR2A (Homo sapiens, UniProt Q12879); assay: as above; assay type: biochemical; conditions: 50 μM glutamate; for Emax: 0.25 h, read-out: A: % maximal [3H]MK-801 binding relative to 1 mM glycine; for EC50: read-out: B: log EC50 (converted)
T2 construct: expressed in transfected cells; host or cells: HEK cells (membrane extract)
Method in brief: as §1

Sprague Dawley rats = assay: Bennett model of mechanical analgesia (sciatic nerve chronic constriction, paw withdrawal threshold); assay type: in vivo, rat;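 also: log paw withdrawal threshold scaled from vehicle group mean (0%) to naive 15 g value (100%)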
Procedure: The Bennett model of mechanical analgesia is used to assess the analgesic effects of compounds as measured by paw withdrawal threshold. Bennett GJ, Xie YK, “A peripheral mononeuropathy in rat that produces disorders of pain sensation like those seen in man,” Pain 33:87-107, 1988. […] Vehicle animals receive the surgery and then receive vehicle rather than test compound. Animals were tested 1 hr, 24 h and 1 wk post-test compound or vehicle administration.
Male 2-3 month old Sprague Dawley rats were used. Harlan was the supplier for all studies. Rats were housed in Lucite cages with aspen wood chip bedding, maintained on a 12:12 light:dark cycle (lights on at 5 AM), and given ad libitum access to Purina lab chow (USA) and tap water throughout the study.
Rats were anesthetized using inhaled isoflurane (2.5%). Sciatic nerve chronic constriction nerve injury surgery was performed as previously described (Bennett and Xie, 1988). An incision (˜1.5 cm in length) was made with a scalpel blade dorsally through skin on the right hind limb, parallel and posterior to femur. Using a small pointed hemostat, the biceps femoris and gluteus superficialis muscles were separated. Using curved blunt forceps, the common sciatic nerve was isolated and exposed. For the mechanical analgesia studies, the whole sciatic nerve was ligated. Using hemostats/forceps and chromic gut (5-0), the nerve was loosely ligated with a square knot; 3 ligatures, 1 mm apart were placed on the nerve. […] Testing occurred approximately 2 weeks post-surgery.
During testing, rats were acclimated to the surface of a suspended wire mesh grid (1 cm×1 cm, with the wire being 0.3 cm in diameter) for 15-20 min. Starting from the smallest, each Von Frey filament was pressed perpendicularly to the plantar surface of the affected (ipsilateral) hind paw until slightly bent and then held for 6 second. If an obvious hind paw withdrawal or a flinching behavior immediately after the withdrawal of the filament was not observed, the next larger filament was used in the same manner. In case of a response, a lower filament was used. This was repeated until six responses were collected.
For all studies, animals were baselined prior to study start to test for allodynia (defined as a paw withdrawal threshold under 5). A subset of animals was tested with gabapentin (150 mg/kg, PO) to ensure at least 50% analgesia. Once it was confirmed animals were ready for study initiation, animals were balanced across groups. All study investigators were blind to treatment conditions. Animals were dosed with 0.1, 1 or 10 mg/kg of test compound via oral gavage (PO), control sets of animals were dosed with gabapentin (150 mg/kg, PO) or vehicle (0.5% Na-CMC in 0.9% sterile saline, PO). Testing occurred 1 h post-dosing with animals retested 24 hrs and 1 week post-dosing. The percent analgesia calculations for each animal were made using the following equation: % analgesia=[(log(x)−y)/((log (z)−y)]*100, where x=the paw withdrawal threshold for the drug-treated animal in grams, y=the average of the log(x) values for the vehicle treated group, and z=the paw withdrawal threshold for naïve animals in grams (historical value of 15 used).
The results are shown in the table below where the percentage of analgesia is measured at 1 hour, 24 hours, and 1 week after compound administration. Since each study had its own gabapentin control group, an example gabapentin control value is shown.

[2] = Sprague-Dawley, in vivo, iv, 2 mg/kg
[3] = Sprague-Dawley, in vivo, iv, 2 mg/kg, read-out: C0
[4] = Sprague-Dawley, in vivo, intravenous 2 mg/kg

T2 sequence (Q12879 23-1464, species assumed, other chains not shown): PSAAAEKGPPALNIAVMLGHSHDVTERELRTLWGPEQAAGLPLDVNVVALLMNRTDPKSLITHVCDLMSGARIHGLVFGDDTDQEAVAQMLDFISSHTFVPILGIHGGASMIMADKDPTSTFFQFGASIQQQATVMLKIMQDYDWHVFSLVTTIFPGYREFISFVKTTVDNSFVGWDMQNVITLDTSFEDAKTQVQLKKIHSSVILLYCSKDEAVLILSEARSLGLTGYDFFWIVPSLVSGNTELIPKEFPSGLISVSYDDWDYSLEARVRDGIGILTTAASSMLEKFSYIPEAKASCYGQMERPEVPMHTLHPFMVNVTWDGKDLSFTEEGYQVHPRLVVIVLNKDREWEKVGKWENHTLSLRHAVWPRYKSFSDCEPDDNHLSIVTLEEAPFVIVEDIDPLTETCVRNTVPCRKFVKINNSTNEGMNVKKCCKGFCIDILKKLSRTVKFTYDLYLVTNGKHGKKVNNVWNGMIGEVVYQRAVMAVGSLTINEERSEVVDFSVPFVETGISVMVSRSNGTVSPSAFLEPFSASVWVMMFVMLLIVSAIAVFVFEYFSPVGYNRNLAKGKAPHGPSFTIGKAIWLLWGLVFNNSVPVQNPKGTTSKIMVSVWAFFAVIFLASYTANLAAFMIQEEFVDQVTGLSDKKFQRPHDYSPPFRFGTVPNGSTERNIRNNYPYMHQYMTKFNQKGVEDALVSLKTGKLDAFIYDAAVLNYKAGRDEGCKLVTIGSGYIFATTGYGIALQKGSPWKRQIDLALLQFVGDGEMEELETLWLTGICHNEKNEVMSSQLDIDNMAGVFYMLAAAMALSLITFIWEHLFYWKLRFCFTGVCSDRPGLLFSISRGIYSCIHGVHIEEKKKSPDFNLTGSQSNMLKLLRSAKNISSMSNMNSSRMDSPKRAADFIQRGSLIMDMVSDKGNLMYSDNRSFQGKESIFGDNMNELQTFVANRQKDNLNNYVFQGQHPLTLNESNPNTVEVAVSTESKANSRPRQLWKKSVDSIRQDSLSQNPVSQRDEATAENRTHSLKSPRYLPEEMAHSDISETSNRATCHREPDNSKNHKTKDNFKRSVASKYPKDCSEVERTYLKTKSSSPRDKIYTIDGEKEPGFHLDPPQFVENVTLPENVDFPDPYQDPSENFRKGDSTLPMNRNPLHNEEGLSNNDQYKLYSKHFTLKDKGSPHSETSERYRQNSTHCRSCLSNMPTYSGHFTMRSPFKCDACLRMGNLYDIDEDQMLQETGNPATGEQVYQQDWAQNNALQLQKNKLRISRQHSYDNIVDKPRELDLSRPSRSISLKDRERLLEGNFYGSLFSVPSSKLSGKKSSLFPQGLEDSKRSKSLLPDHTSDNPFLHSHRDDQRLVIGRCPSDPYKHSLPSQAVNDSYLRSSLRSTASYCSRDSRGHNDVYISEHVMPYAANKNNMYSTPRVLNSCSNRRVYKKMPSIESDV
T1 sequence (Q13224 27-1484, species assumed, other chains not shown): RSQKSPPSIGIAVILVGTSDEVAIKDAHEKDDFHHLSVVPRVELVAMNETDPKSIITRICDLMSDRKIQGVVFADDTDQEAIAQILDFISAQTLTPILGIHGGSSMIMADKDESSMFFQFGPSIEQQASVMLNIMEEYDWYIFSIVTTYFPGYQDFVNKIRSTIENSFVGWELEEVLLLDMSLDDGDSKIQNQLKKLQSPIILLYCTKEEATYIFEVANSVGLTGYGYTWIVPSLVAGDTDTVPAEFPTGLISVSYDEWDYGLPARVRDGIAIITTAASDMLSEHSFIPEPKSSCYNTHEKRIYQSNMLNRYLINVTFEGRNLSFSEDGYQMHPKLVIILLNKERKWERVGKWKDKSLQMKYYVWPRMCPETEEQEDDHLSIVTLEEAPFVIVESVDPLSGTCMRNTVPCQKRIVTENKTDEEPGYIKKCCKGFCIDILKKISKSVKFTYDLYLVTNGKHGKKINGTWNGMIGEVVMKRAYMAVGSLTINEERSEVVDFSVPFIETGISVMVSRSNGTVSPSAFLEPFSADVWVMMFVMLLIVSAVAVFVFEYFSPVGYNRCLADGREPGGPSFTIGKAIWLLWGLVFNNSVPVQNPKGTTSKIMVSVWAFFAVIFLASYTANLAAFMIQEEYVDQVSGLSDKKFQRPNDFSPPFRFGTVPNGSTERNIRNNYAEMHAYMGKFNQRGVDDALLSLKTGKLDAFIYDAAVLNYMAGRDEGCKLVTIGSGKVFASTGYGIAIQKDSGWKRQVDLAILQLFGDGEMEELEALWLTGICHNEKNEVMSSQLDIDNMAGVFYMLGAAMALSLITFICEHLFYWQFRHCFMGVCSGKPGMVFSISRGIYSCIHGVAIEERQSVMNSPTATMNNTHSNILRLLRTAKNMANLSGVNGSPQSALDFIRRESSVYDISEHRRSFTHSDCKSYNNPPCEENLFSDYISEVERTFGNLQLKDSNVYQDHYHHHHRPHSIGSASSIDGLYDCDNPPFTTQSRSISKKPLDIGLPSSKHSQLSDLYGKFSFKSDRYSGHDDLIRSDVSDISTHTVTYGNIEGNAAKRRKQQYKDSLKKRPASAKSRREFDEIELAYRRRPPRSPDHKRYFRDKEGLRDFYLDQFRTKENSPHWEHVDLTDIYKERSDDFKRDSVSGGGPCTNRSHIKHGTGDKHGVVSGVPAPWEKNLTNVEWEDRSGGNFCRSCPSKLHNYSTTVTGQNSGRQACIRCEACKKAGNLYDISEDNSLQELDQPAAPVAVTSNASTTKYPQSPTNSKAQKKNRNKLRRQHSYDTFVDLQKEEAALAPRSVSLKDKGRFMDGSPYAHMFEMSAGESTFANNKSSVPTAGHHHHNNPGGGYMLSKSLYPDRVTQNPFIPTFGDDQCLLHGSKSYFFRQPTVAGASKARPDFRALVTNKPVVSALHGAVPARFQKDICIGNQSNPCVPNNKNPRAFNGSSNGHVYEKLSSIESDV

SMILES | AUC(0-t) ([1]; 10 mg/kg) [ng·h/mL] | bioavailability ([1]; 10 mg/kg) [%] | Tmax ([1]; 10 mg/kg) [min] | Cmax ([1]; 10 mg/kg) [ng/mL] | CSF Cmax [1] [ng/mL] | Brain Cmax [1] [ng/mL] | AUC(0-t) (IV pharmacokinetics; [2]) [ng·h/mL] | CI (IV pharmacokinetics; intravenous 2 mg/kg) [mL/min/kg] | EC50 (NMDAR2B) [nM] | Emax (NMDAR2B) [%] | Emax (NMDAR2A) [%] | % analgesia (Sprague Dawley rats; 0.1 mg/kg PO, 1 wk) [%] | % analgesia (Sprague Dawley rats; 0.1 mg/kg PO, 1 h) [%] | % analgesia (Sprague Dawley rats; 0.1 mg/kg PO, 24 h) [%] | % analgesia (Sprague Dawley rats; 1 mg/kg PO, 1 wk) [%] | % analgesia (Sprague Dawley rats; 1 mg/kg PO, 1 h) [%] | % analgesia (Sprague Dawley rats; 1 mg/kg PO, 24 h) [%] | % analgesia (Sprague Dawley rats; 10 mg/kg PO, 1 wk) [%] | % analgesia (Sprague Dawley rats; 10 mg/kg PO, 1 h) [%] | % analgesia (Sprague Dawley rats; 10 mg/kg PO, 24 h) [%] | further results
CC1CCC2(CC1)CNC2=O (racemic) [Compound AD, 7-methyl-2-azaspiro[3.5]nonan-1-one] | 4580 | 67 | 25.2 | 2030 | 1009.2 | 1832.2 | 1360 | 24.57 | ≥ 1 | < 100 | 0 | 0 | 18.4 | 4.7 | 17.9 | 15.4 | 13.8 | 15.5 | 15.3 | 7.6 | half-life (IV pharmacokinetics; [2]): 47.4 min; C0 (IV pharmacokinetics; [3]): 2060 ng/mL; Vd (IV pharmacokinetics; [2]): 0.97 L/kg
O=C1NCC12CCC(OCc1ccccc1)CC2 (single isomer, unassigned) [AI, 7-(benzyloxy)-2-azaspiro[3.5]nonan-1-one] | 5900 | 94 | 30 | 3970 | 269.17 | 1087.9 | 1260 | 26.19 | < 1 | < 100 | < 100 | 7.7 | 5.3 | 7.7 | 10.2 | 40.4 | 23.4 | 22.0 | 50.0 | 33.2 | half-life (IV pharmacokinetics; [2]): 82.2 min; C0 (IV pharmacokinetics; [3]): 4330 ng/mL; Vd (IV pharmacokinetics; [2]): 0.75 L/kg; EC50 (NMDAR2A): < 1 nM
C[C@@H](O)[C@H](NC1CCC2(CC1)CNC2=O)C(N)=O (single isomer, unassigned) [AP] | 2050 | 15 | 120 | 625 | 80.46 | 0 |  |  | < 1 | < 100 | < 100 |  |  |  |  |  |  | 0 | 28.0 | 0 | AUClast (IV pharmacokinetics; intravenous 2 mg/kg, 2 mg/kg): 2941 ng·h/mL; C0 (IV pharmacokinetics; intravenous 2 mg/kg, 2 mg/kg): 6420.4 ng/mL; CI (IV pharmacokinetics; intravenous 2 mg/kg, 2 mg/kg): 11.21 mL/min/kg; T1/2 (IV pharmacokinetics; intravenous 2 mg/kg, 2 mg/kg): 166 min; Vss (IV pharmacokinetics; intravenous 2 mg/kg, 2 mg/kg): 0.92 L/kg; EC50 (NMDAR2A): < 1 nM
COc1ccc(CN2CC3(CCC(O)CC3)C2=O)cc1 (stereo not shown) [AG] |  |  |  |  | 217.3 | 307.49 |  | 51.36 | < 1 | < 100 | < 100 | 1.7 | 26.7 | 14.8 | 0 | 41.5 | 23.7 | 0 | 56.9 | 26.7 | bioavailability [1]: 41%; Tmax [1]: 15 min; AUC(0-t) [1]: 1330 ng·h/mL; Cmax [1]: 1930 ng/mL; AUC(0-t) (IV pharmacokinetics; [4]): 650 ng·h/mL; half-life (IV pharmacokinetics; [4]): 24 min; C0 (IV pharmacokinetics; Sprague-Dawley, in vivo, intravenous 2 mg/kg, read-out: C0): 2650 ng/mL; Vd (IV pharmacokinetics; [4]): 0.7 L/kg; EC50 (NMDAR2A): ≥ 1 nM
O=C1NCC12CCC(O)CC2 (stereo not shown) [AL, 7-hydroxy-2-azaspiro[3.5]nonan-1-one] | 19300 | 97 | 60 | 9480 | 7532 | 3672 | 6220 | 5.4 | < 1 |  |  | 3.1 | 20.9 | 10.8 | 6.6 | 52.7 | 14.4 | 1.1 | 61.9 | 13.8 | half-life (IV pharmacokinetics; [2]): 224 min; C0 (IV pharmacokinetics; [3]): 3990 ng/mL; Vd (IV pharmacokinetics; [2]): 0.83 L/kg; A: % maximal [3H]MK-801 binding relative to 1 mM glycine (NMDAR2B): + (<100%=+); A: % maximal [3H]MK-801 binding relative to 1 mM glycine (NMDAR2A): − (−=0)
